Measured values taken from BigSolDB 2.1.

CCc1cc(C(N)=S)ccn1
solubility (mole fraction)
Details | 278.15 K | 283.15 K | 288.15 K | 293.15 K | 298.15 K | 303.15 K | 308.15 K | 313.15 K | 318.15 K | 323.15 K
in 2-ethoxyethanol | 0.0252 | 0.0261 | 0.0289 | 0.0336 | 0.0383 | 0.0449 | 0.0516 | 0.0596 | 0.0677 | 0.0751
in 2-methoxyethanol | 0.0343 | 0.0387 | 0.0441 | 0.0494 | 0.055 | 0.0617 | 0.0676 | 0.075 | 0.0848 | 0.094
in DMAc | 0.169 | 0.173 | 0.179 | 0.189 | 0.199 | 0.209 | 0.221 | 0.233 | 0.245 | 0.257
in DMF | 0.104 | 0.112 | 0.123 | 0.135 | 0.148 | 0.157 | 0.167 | 0.185 | 0.199 | 0.219
in DMSO | – | – | – | 0.187 | 0.205 | 0.216 | 0.228 | 0.243 | 0.259 | 0.271
in NMP | 0.182 | 0.191 | 0.199 | 0.212 | 0.22 | 0.23 | 0.242 | 0.253 | 0.265 | 0.277
in acetone | 0.00589 | 0.00695 | 0.00799 | 0.00925 | 0.0109 | 0.0124 | 0.0148 | 0.0172 | 0.0194 | 0.0226
in ethanol | 0.00464 | 0.00566 | 0.00695 | 0.00835 | 0.00993 | 0.012 | 0.0134 | 0.0161 | 0.0192 | 0.0228
in ethyl acetate | 0.00874 | 0.0102 | 0.0122 | 0.0144 | 0.0171 | 0.0199 | 0.0231 | 0.0265 | 0.0312 | 0.0381
in isopropanol | 0.00292 | 0.00334 | 0.0042 | 0.00507 | 0.00642 | 0.00805 | 0.0096 | 0.0115 | 0.0143 | 0.018
in methanol | 0.00534 | 0.0063 | 0.0074 | 0.00919 | 0.0112 | 0.013 | 0.0159 | 0.018 | 0.0215 | 0.0256
in n-propanol | 0.00381 | 0.00464 | 0.00562 | 0.00719 | 0.00862 | 0.0103 | 0.0128 | 0.0159 | 0.0192 | 0.0231
